Measured values as given in BindingDB's records for patent US20240148821 (Chugai Seiyaku Kabushiki Kaisha, 2024).
Numbered stars: 1 amine (or outer) side, 2 acyl side, 3 side chain; on linkers, the order of the positions; unused ones are H or OH. Bridge positions count the residues as written; N and C are the ends. Square brackets hold non-standard residues; d marks the D form. Peptide text beside a SMILES is read from it. * marks the point of attachment. hPhe(3-Cl-4-CF3) = N[C@@H](CCc1ccc(C(F)(F)F)c(Cl)c1)C(=O)O; hPhe(3-F,4-CF3) = N[C@@H](CCc1ccc(C(F)(F)F)c(F)c1)C(=O)O; X123 = O=C([C@@H]1C[C@H](n2ccnn2)CN1[*:1])[*:2]; X31 = O=C([C@@H]1C[C@@H](n2ccnn2)CN1[*:1])[*:2]; NMeAla(cPent) = CN[C@@H](CC1CCCC1)C(=O)O; NMeGly(cBu) = CN[C@H](C(=O)O)C1CCC1; NMeCha = CN[C@@H](CC1CCCCC1)C(=O)O; cisHyp = O=C(O)[C@@H]1C[C@H](O)CN1; X108 = O=C(CN(c1ccsc1)[*:1])[*:2]; Hyp = O=C(O)[C@@H]1C[C@@H](O)CN1; NMeD = CN[C@@H](CC(=O)O)C(=O)O; NMeL = CN[C@@H](CC(C)C)C(=O)O; NMeV = CN[C@H](C(=O)O)C(C)C; NMeA = CN[C@@H](C)C(=O)O; Piperidide = C1CCN(*)CC1; Ac5c = NC1(C(=O)O)CCCC1; X94 = COc1cccc(C*)c1; Meb = Cc1ccc(C*)cc1; X87 = Clc1ccccc1C*; Sar = CNCC(=O)O

molecular target: GTPase KRas (G12D) and Son of Sevenless Homolog 1 (SOS) (Homo sapiens, UniProt P01116, G12D); experiment: AlphaScreen Assay
Sequence (P01116 whole entry G12D): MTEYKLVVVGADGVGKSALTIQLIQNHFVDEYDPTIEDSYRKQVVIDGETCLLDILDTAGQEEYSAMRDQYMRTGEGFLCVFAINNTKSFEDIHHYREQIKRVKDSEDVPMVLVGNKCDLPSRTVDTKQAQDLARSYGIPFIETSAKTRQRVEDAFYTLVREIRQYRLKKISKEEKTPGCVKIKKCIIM
Sequence (Q07889 whole entry, further chain): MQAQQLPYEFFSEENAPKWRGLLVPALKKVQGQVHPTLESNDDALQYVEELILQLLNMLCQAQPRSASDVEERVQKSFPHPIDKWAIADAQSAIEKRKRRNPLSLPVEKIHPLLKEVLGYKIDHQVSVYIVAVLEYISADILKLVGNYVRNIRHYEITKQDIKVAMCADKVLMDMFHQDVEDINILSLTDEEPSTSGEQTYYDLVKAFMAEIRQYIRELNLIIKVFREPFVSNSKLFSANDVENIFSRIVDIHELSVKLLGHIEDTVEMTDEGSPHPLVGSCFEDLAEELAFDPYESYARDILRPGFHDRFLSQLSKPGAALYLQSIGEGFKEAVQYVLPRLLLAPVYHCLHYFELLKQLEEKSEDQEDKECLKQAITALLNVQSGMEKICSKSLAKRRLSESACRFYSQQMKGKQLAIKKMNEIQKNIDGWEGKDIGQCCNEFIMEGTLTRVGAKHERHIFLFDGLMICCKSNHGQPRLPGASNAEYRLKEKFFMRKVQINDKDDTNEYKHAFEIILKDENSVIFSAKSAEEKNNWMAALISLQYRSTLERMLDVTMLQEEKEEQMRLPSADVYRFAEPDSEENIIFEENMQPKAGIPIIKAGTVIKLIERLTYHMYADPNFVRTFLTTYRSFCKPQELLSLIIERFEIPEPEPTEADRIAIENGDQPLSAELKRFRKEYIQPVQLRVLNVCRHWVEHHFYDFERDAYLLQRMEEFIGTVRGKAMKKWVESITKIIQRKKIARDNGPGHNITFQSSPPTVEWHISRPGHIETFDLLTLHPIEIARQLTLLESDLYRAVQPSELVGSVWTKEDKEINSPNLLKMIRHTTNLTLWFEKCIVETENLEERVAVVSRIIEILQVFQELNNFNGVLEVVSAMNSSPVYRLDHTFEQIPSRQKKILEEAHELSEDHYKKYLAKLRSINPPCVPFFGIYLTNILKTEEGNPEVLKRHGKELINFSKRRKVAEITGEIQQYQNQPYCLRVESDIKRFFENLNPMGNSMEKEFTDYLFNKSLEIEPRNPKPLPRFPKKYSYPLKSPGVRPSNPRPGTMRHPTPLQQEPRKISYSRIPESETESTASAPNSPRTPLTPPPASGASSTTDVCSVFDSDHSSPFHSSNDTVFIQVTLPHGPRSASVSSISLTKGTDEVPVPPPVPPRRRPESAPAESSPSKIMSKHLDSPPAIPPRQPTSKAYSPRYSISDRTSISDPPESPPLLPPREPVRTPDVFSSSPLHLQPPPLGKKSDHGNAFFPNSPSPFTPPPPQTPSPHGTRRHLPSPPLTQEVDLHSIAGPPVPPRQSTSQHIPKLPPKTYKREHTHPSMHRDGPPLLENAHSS
Method: Protein-protein interaction inhibition (PPI) between Kras and SOS1 was measured by energy transfer from nickel-conjugated donor beads to streptavidin-conjugated acceptor beads using biotin-tagged human Kras expressed in E. coli and loaded with GDP after purification and His-tagged human SOS1 enzyme. This measurement utilizes the phenomenon in which donor beads are irradiated with light at 680 nm, such that energy is transferred to acceptor beads through singlet oxygen and light at 520-620 nm is detected from the acceptor beads.

IC50 | SMILES
4 nM | CC[C@H](C)[C@@H]1NC(=O)[C@H](C)N(C)C(=O)C[C@@H](C(=O)N2CCCCC2)N(C)C(=O)[C@H](C2CCC2)N(C)C(=O)C2(CCCC2)NC(=O)CN(c2ccsc2)C(=O)[C@H](CCc2ccc(C(F)(F)F)c(Cl)c2)NC(=O)CN(C)C(=O)[C@H](CC2CCCCC2)N(C)C(=O)CN(C)C(=O)CN(C)C1=O [US20240148821, Compound 2149] ([NMeA]I[Sar][Sar][NMeCha][Sar][hPhe(3-Cl-4-CF3)][X108][Ac5c][NMeGly(cBu)][NMeD]-Piperidide; lactam N-11)
0.47 nM | CC[C@H](C)[C@@H]1NC(=O)[C@H](CC(C)C)N(C)C(=O)C[C@@H](C(=O)N2CCCCC2)N(C)C(=O)[C@H](C(C)C)N(C)C(=O)C2(CCCC2)NC(=O)[C@@H]2C[C@@H](n3ccnn3)CN2C(=O)[C@H](CCc2ccc(C(F)(F)F)c(Cl)c2)NC(=O)CN(C)C(=O)[C@H](CC2CCCC2)N(C)C(=O)CN(C)C(=O)CN(C)C1=O [US20240148821, Compound 2113] ([NMeL]I[Sar][Sar][NMeAla(cPent)][Sar][hPhe(3-Cl-4-CF3)][X31][Ac5c][NMeV][NMeD]-Piperidide; lactam N-11)

The next lines start with the molecule.

SMILES | IC50
CC[C@H](C)[C@@H]1NC(=O)[C@H](CC(C)C)N(C)C(=O)C[C@@H](C(=O)N2CCCCC2)N(C)C(=O)[C@H](CC(C)C)N(C)C(=O)C2(CCCC2)NC(=O)[C@@H]2C[C@H](OCc3ccccc3Cl)CN2C(=O)[C@H](CCc2ccc(C(F)(F)F)c(F)c2)NC(=O)CN(C)C(=O)[C@H](CC2CCCCC2)N(C)C(=O)CN(C)C(=O)CN(C)C1=O [US20240148821, Compound 2132] ([NMeL]I[Sar][Sar][NMeCha][Sar][hPhe(3-F,4-CF3)][cisHyp](X87)[Ac5c][NMeL][NMeD]-Piperidide; lactam N-11) | 91 nM
CC[C@H](C)[C@@H]1NC(=O)[C@H](CC(C)C)N(C)C(=O)C[C@@H](C(=O)N2CCCCC2)N(C)C(=O)[C@H](C(C)C)N(C)C(=O)C2(CCCC2)NC(=O)[C@@H]2C[C@H](n3ccnn3)CN2C(=O)[C@H](CCc2ccc(C(F)(F)F)c(Cl)c2)NC(=O)CN(C)C(=O)[C@H](CC2CCCC2)N(C)C(=O)CN(C)C(=O)CN(C)C1=O [US20240148821, Compound 2115] ([NMeL]I[Sar][Sar][NMeAla(cPent)][Sar][hPhe(3-Cl-4-CF3)][X123][Ac5c][NMeV][NMeD]-Piperidide; lactam N-11) | 1.1 nM
CC[C@H](C)[C@@H]1NC(=O)[C@H](CC(C)C)N(C)C(=O)C[C@@H](C(=O)N2CCCCC2)N(C)C(=O)[C@H](CC(C)C)N(C)C(=O)C2(CCCC2)NC(=O)[C@@H]2C[C@@H](OCc3ccc(C)cc3)CN2C(=O)[C@H](CCc2ccc(C(F)(F)F)c(F)c2)NC(=O)CN(C)C(=O)[C@H](CC2CCCCC2)N(C)C(=O)CN(C)C(=O)CN(C)C1=O [US20240148821, Compound 2130] ([NMeL]I[Sar][Sar][NMeCha][Sar][hPhe(3-F,4-CF3)][Hyp](Meb)[Ac5c][NMeL][NMeD]-Piperidide; lactam N-11) | 10 nM
CC[C@H](C)[C@@H]1NC(=O)[C@H](CC(C)C)N(C)C(=O)C[C@@H](C(=O)N2CCCCC2)N(C)C(=O)[C@H](CC(C)C)N(C)C(=O)C2(CCCC2)NC(=O)[C@@H]2C[C@H](OCc3cccc(OC)c3)CN2C(=O)[C@H](CCc2ccc(C(F)(F)F)c(F)c2)NC(=O)CN(C)C(=O)[C@H](CC2CCCCC2)N(C)C(=O)CN(C)C(=O)CN(C)C1=O [US20240148821, Compound 2136] ([NMeL]I[Sar][Sar][NMeCha][Sar][hPhe(3-F,4-CF3)][cisHyp](X94)[Ac5c][NMeL][NMeD]-Piperidide; lactam N-11) | 39 nM
CC[C@H](C)[C@@H]1NC(=O)[C@H](CC(C)C)N(C)C(=O)C[C@@H](C(=O)N2CCCCC2)N(C)C(=O)[C@H](CC(C)C)N(C)C(=O)C2(CCCC2)NC(=O)[C@@H]2C[C@@H](OCc3cccc(OC)c3)CN2C(=O)[C@H](CCc2ccc(C(F)(F)F)c(F)c2)NC(=O)CN(C)C(=O)[C@H](CC2CCCCC2)N(C)C(=O)CN(C)C(=O)CN(C)C1=O [US20240148821, Compound 2131] ([NMeL]I[Sar][Sar][NMeCha][Sar][hPhe(3-F,4-CF3)][Hyp](X94)[Ac5c][NMeL][NMeD]-Piperidide; lactam N-11) | 9.8 nM
